# Source: article PMC11465516, “Kinetic and Structural Studies of the Plastidial Solanum tuberosum Phosphorylase” (ACS Omega, 2024)
# Read-outs that look alike come from different tables or passages of the source.
# Tests used:
# stPho1ΔL78 [1] = biological target: T1, stPho1ΔL78 (Solanum tuberosum, UniProt P04045); assay: stPho1ΔL78 enzyme kinetics in the direction of glycogen synthesis; assay type: biochemical
# T1 construct: the N-terminal (residues 23–446) and the C-terminal (residues 511–916); from tissue; host or cells: Solanum tuberosum mature tubers; purified stPho1 left about 4 weeks at room temperature to proteolyse
# Description: (§1) In vitro, stPho1 can perform the reverse reaction in the presence of higher concentrations of Glc-1-P, where the enzyme adds glucose residues on glucans with direct release of orthophosphate ions, which can then be measured spectrophotometrically using the method of Saheki et al.[47] Starch granules are composed of two distinct glucose polymers, amylose and amylopectin.[48] Amylopectin is the major polymer in starch and has α-1,4-linked glucose chains with α-1,6-linked branches every 24–30 glucose units, whereas amylose is composed of long α-1,4-linked linear chains. Kinetic studies were performed using glycogen, whose structure is very similar to that of amylopectin but with more branches (every 8–12 glucose units) due to better solubility. Enzyme assays were performed at 30 °C in the direction of glycogen synthesis using 30 μg/mL of stPho1 or ΔPho1 in a 20 mM sodium citrate buffer (pH 6.0) containing 60 mM KCl, 0.6 mM ethylenediaminetetraacetic acid (EDTA), and 0.6 mM dithiothreitol, using constant concentrations of glycogen (0.2% w/v) and various concentrations of Glc-1-P (3, 4, 6, 10, and 15 mM for stPho1 and 1, 2, 3, 4, 6 mM for stPho1ΔL78) and inhibitors. Initial velocities were calculated from the pseudo-first-order rate constants (k) using the first-order rate equation ([A] = [A]0e^–kt), where [A]0 and [A] are the initial concentration of the sample and the sample’s concentration at various times, respectively, and t is the corresponding time (min) following a previously established protocol,[54] and the nonlinear regression program GraFit[50] with an explicit value was used for calculating the standard deviation of each point.[49]
# (§2) To establish the optimum pH and temperature for enzyme activity, we first measured the enzymatic activity in the 4.5–8.5 pH range. Kinetic studies were performed in the direction of glycogen synthesis using 50 μg/mL of stPho1 using six different buffers (20 mM sodium acetate buffer for pH 4.5 and 5.5, 20 mM sodium citrate buffer for pH 6.0 and 6.5, and 20 mM Tris–HCl for pH 7.5 and 8.5) containing 60 mM KCl, 0.6 mM EDTA, and 0.6 mM dithiothreitol, using constant concentrations of glycogen (0.2% w/v) and Glc-1-P (14 mM) at 30 °C. […] To determine the optimum temperature for the activity, enzymatic assays were performed at temperatures 20, 30, 37, and 45 °C. Kinetic studies were performed in the direction of glycogen synthesis using 50 μg/mL of stPho1 in a 20 mM sodium citrate buffer (pH 6.0) containing 60 mM KCl, 0.6 mM EDTA, and 0.6 mM dithiothreitol, using constant concentrations of glycogen (0.2% w/v) and Glc-1-P (4 mM). […] Since mammalian muscle phosphorylase activity is dependent on the presence of the allosteric activator AMP,[35] we investigated whether the presence of AMP affects the stPho1 enzymatic activity. The effect was tested with 1 mM AMP, using 30 μg/mL of stPho1 in 20 mM sodium citrate buffer (pH 6.0) containing 60 mM KCl, 0.6 mM EDTA, and 0.6 mM dithiothreitol, using a saturating concentration of glycogen (0.2% w/v) and various concentrations of Glc-1-P (3, 6, 10, and 15 mM).
# [2] = system: rabbit muscle glycogen phosphorylase b (rmGPb); conditions: cited from earlier work
# [3] = biological target: T2, stPho1 (plastidial Solanum tuberosum phosphorylase) (Solanum tuberosum, UniProt P04045); assay: stPho1 enzyme kinetics in the direction of glycogen synthesis; assay type: biochemical
# T2 construct: stPho1 was purified from a natural source; from tissue; host or cells: Solanum tuberosum mature tubers
# T2 sequence (P04045 51-966): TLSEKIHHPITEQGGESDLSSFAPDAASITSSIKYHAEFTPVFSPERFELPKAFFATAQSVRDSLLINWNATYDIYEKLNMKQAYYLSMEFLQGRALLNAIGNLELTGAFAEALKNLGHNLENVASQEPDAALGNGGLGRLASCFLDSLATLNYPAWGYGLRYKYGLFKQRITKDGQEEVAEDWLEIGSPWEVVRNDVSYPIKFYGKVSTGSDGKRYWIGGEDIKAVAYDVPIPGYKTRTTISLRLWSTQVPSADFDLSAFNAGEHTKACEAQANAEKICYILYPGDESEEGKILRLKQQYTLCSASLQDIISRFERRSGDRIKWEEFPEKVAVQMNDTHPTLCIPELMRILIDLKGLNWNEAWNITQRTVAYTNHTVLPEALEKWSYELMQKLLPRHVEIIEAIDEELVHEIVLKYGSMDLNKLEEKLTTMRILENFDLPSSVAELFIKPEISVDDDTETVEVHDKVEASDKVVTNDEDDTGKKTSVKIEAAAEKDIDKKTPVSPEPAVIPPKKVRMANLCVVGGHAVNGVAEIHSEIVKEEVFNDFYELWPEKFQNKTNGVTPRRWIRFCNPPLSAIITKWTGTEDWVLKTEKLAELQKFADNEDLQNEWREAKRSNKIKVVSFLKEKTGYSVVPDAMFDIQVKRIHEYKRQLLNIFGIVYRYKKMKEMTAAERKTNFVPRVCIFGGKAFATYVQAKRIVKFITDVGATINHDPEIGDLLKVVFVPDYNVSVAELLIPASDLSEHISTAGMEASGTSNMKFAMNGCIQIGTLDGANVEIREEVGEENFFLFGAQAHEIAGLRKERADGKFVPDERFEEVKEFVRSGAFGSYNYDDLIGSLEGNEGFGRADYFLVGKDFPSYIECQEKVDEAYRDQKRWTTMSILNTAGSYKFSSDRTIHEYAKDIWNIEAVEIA
# Description: as §1, §2
# stPho1ΔL78 [4] = assay: stPho1ΔL78 enzyme kinetics in the direction of glycogen synthesis; assay type: biochemical, Solanum tuberosum; conditions: direction of glycan synthesis
# Description: as §1, §2
# mammalian enzyme (GP) = biological target: mammalian enzyme (GP); set-up: method as in PMID 32771768; conditions: cited from earlier work
# rmGPa = biological target: rmGPa; set-up: method as in PMID 12930991, PMID 3805034, PMID 624732; conditions: cited from earlier work
# [5] = 30 °C, pH 6.0, glycogen 0.2% w/v
# [6] = 30 °C, pH 6.0, glycogen 0.2% w/v, read-out: Km Glc-1-P
# [7] = 30 °C, pH 6.0, glycogen 0.2% w/v, various Glc-1-P, read-out: Ki
molecule,measurement,setting,value
"O=P(O)(O)O[C@H]1O[C@H](CO)[C@@H](O)[C@H](O)[C@H]1O [Glc-1-P, glucose-1-phosphate]",Vmax Glc-1-P,stPho1ΔL78 [1]; [5],0.32 ± 0.02 µmol/min/mg
same,Km,stPho1ΔL78 [1]; [6],1400 ± 200 µM
same,Vmax Glc-1-P + 1 mM AMP,[2]; + 1 mM AMP,64[63] μmol/min/mg
same,Vmax Glc-1-P,[2],2.9[63] μmol/min/mg
same,Km,"[2]; read-out: Km Glc-1-P + 1 mM AMP, + 1 mM AMP",9000 µM
same,Km,[2]; read-out: Km Glc-1-P,28000 µM
same,Vmax Glc-1-P,[3]; [5],0.37 ± 0.01 µmol/min/mg
same,Km,[3]; [6],2300 ± 200 µM
same,Vmax Glc-1-P + 1 mM AMP,"[3]; + 1 mM AMP, pH 6.0, glycogen 0.2% w/v",0.39 ± 0.01 µmol/min/mg
same,Km,"[3]; read-out: Km Glc-1-P + 1 mM AMP, + 1 mM AMP, pH 6.0, glycogen 0.2% w/v",2400 ± 200 µM
OC[C@H]1O[C@@H]2O[C@H]3[C@H](O)[C@@H](O)[C@@H](O[C@H]4[C@H](O)[C@@H](O)[C@@H](O[C@H]5[C@H](O)[C@@H](O)[C@@H](O[C@H]6[C@H](O)[C@@H](O)[C@@H](O[C@H]7[C@H](O)[C@@H](O)[C@@H](O[C@H]1[C@H](O)[C@H]2O)O[C@@H]7CO)O[C@@H]6CO)O[C@@H]5CO)O[C@@H]4CO)O[C@@H]3CO [α-cyclodextrin],Ki,[2]; glycogen storage site ligands,47.1 mM
Nc1ncnc2c1ncn2[C@@H]1O[C@H](COP(=O)(O)O)[C@@H](O)[C@H]1O [AMP],"Effect on stPho1 enzymatic activity (Vmax, Km)","[3]; 1 mM AMP, glycogen 0.2% w/v, Glc-1-P 3-15 mM",does not have any effect
OC[C@H]1O[C@@H]2O[C@H]3[C@H](O)[C@@H](O)[C@@H](O[C@H]4[C@H](O)[C@@H](O)[C@@H](O[C@H]5[C@H](O)[C@@H](O)[C@@H](O[C@H]6[C@H](O)[C@@H](O)[C@@H](O[C@H]7[C@H](O)[C@@H](O)[C@@H](O[C@H]8[C@H](O)[C@@H](O)[C@@H](O[C@H]1[C@H](O)[C@H]2O)O[C@@H]8CO)O[C@@H]7CO)O[C@@H]6CO)O[C@@H]5CO)O[C@@H]4CO)O[C@@H]3CO [β-cyclodextrin],Ki,stPho1ΔL78 [1],0.031 ± 0.001 mM
same,Ki,[2]; in the presence of 1 mM AMP,14.1 mM
same,Ki,[3],0.0731 ± 0.0059 mM
same,Binding strength in stPho1 relative to rmGPb,[3]; stPho1 forms vs rmGPb,200–450 times
glycogen,Km × 1000 glycogen,"stPho1ΔL78 [1]; 30 °C, pH 6.0",60 ± 9%
same,Affinity of stPho1ΔL78 relative to stPho1,stPho1ΔL78 [4],2 times
same,Km × 1000 glycogen,[2],12^1[63] %
same,Km × 1000 glycogen,"[3]; 30 °C, pH 6.0",114.2 ± 7.6%
maltoheptaose [maltoheptaose (G7)],Ki,[2]; glycogen storage site ligands,1 mM
Cn1c(=O)c2c(ncn2C)n(C)c1=O [caffeine],Ki,[2]; in the presence of 1 mM AMP,0.13 mM
OC[C@H]1O[C@@H]2O[C@H]3[C@H](O)[C@@H](O)[C@@H](O[C@H]4[C@H](O)[C@@H](O)[C@@H](O[C@H]5[C@H](O)[C@@H](O)[C@@H](O[C@H]6[C@H](O)[C@@H](O)[C@@H](O[C@H]7[C@H](O)[C@@H](O)[C@@H](O[C@H]8[C@H](O)[C@@H](O)[C@@H](O[C@H]9[C@H](O)[C@@H](O)[C@@H](O[C@H]1[C@H](O)[C@H]2O)O[C@@H]9CO)O[C@@H]8CO)O[C@@H]7CO)O[C@@H]6CO)O[C@@H]5CO)O[C@@H]4CO)O[C@@H]3CO [γ-cyclodextrin],Ki,[2]; glycogen storage site ligands,7.4 mM
OC[C@H]1O[C@H](O)[C@H](O)[C@@H](O)[C@@H]1O [α-D-glucose],Ki,stPho1ΔL78 [1]; [7],38.4 ± 1.5 mM
same,Ki,[2]; in the presence of 1 mM AMP,3.2 mM
same,Ki,[3]; [7],42.8 ± 2.6 mM
O=c1c(O)c(-c2ccc(O)c(O)c2)oc2cc(O)cc(O)c12 [quercetin],Effect on the enzymatic activity of stPho1,[3]; up to a concentration of 1 mM,did not have any effect
same,Ki,mammalian enzyme (GP),0.032 to 0.069 mM
C[C@H]1O[C@H](O[C@H]2[C@H](O)[C@@H](O)[C@@H](O[C@H]3[C@H](O)[C@@H](O)C(O)O[C@@H]3CO)O[C@@H]2CO)[C@H](O)[C@@H](O)[C@@H]1N[C@H]1C=C(CO)[C@@H](O)[C@H](O)[C@H]1O (some centres unmarked) [acarbose],Ki,rmGPa,26 mM
